Assay results as given in PMC9719863 (Molecular Metabolism, 2022).
Like-named read-outs stand apart in the source and are kept apart here. *1 amine or outer side, *2 acyl side, *3 side chain or, on linkers, in order; H or OH if unused. Where a SMILES comes first, the peptide text is derived from it. Side-chain parts run from the residue outwards. [ ]: non-standard residue; d: D form. The star is where a group is joined. γGlu = O=C(O)[C@H](CCC(=O)[*:2])N[*:1]; Palmitoyl = CCCCCCCCCCCCCCCC(=O)*; PhLac = O=C(O)[C@@H](O)Cc1ccccc1

Experiments:
mGIPR [1] = molecular target: T1, mGIPR (Mus musculus, UniProt Q0P543); assay type: binding
T1 sequence (Q0P543 19-460): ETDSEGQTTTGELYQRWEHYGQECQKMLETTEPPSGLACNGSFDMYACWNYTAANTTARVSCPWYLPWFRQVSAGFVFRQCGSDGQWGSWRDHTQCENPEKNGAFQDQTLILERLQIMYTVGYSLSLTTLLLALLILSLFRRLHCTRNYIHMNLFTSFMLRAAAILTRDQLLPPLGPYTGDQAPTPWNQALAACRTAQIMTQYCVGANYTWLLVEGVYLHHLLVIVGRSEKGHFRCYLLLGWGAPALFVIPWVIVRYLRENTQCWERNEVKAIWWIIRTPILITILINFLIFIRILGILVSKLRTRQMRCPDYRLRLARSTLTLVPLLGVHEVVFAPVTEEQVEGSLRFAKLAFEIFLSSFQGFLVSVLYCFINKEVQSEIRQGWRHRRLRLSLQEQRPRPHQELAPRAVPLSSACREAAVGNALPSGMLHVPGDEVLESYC

hGIPR [2] = molecular target: T2, hGIPR (Homo sapiens, UniProt P48546); test: cAMP CRE-luciferase assay in BHK cells expressing GIPR; assay type: cell-based; details: agonist mode, without native ligand
T2 sequence (P48546 22-466): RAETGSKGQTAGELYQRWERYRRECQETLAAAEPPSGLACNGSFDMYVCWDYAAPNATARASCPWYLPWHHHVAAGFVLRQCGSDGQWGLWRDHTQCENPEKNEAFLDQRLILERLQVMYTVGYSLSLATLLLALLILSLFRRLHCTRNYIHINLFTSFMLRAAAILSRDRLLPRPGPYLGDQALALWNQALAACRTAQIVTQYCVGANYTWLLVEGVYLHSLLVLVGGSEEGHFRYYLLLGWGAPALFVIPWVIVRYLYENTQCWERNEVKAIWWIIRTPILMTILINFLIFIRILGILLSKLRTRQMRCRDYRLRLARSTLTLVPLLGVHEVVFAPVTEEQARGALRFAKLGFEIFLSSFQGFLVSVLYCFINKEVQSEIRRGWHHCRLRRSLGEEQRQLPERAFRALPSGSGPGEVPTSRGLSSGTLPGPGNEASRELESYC

mGIPR [3] = molecular target: T1, mGIPR; test: as above; assay type: cell-based; details: for Agonism at the mGIPR (cAMP production by peptide alone): agonist mode, without native ligand
hGIPR [4] = molecular target: T2, hGIPR; assay type: binding

Row | SMILES | IC50 (mGIPR [1]) [nM] | Agonism at the hGIPR (cAMP production by peptide alone) (hGIPR [2]) | IC50 (mGIPR [3]) [nM] | Agonism at the mGIPR (cAMP production by peptide alone) (mGIPR [3]) | IC50 (hGIPR [4]) [nM]
1 | CC[C@H](C)[C@H](NC(=O)[C@H](CO)NC(=O)[C@H](Cc1ccc(O)cc1)NC(=O)[C@H](CC(=O)O)NC(=O)[C@H](CO)NC(=O)[C@@H](NC(=O)[C@H](Cc1ccccc1)NC(=O)[C@@H](NC(=O)CNC(=O)[C@@H](N)CCC(=O)O)[C@@H](C)O)[C@@H](C)CC)C(=O)N[C@@H](C)C(=O)N[C@@H](CCSC)C(=O)N[C@@H](CC(=O)O)C(=O)N[C@@H](CCCCN)C(=O)N[C@H](C(=O)N[C@@H](Cc1c[nH]cn1)C(=O)N[C@@H](CCC(N)=O)C(=O)N[C@@H](CCC(N)=O)C(=O)N[C@@H](CC(=O)O)C(=O)N[C@@H](Cc1ccccc1)C(=O)N[C@H](C(=O)N[C@@H](CC(N)=O)C(=O)N[C@@H](Cc1c[nH]c2ccccc12)C(=O)N[C@@H](CC(C)C)C(=O)N[C@@H](CC(C)C)C(=O)N[C@@H](C)C(=O)N[C@@H](CCC(N)=O)C(=O)N[C@@H](CCCCN)C(N)=O)C(C)C)[C@@H](C)CC [Peptide 1, hGIP(3–30), reference compound] | 35.1 ± 16.9 | partial agonism | > 6000 | no significant agonism | –
2 | CC[C@H](C)[C@H](NC(=O)[C@H](CO)NC(=O)[C@H](Cc1ccc(O)cc1)NC(=O)[C@H](CC(=O)O)NC(=O)[C@H](CO)NC(=O)[C@@H](NC(=O)[C@@H](O)Cc1ccccc1)[C@@H](C)CC)C(=O)N[C@@H](C)C(=O)N[C@@H](CC(C)C)C(=O)N[C@@H](CC(=O)O)C(=O)N[C@@H](CCCCN)C(=O)N[C@H](C(=O)N[C@@H](CCCNC(=N)N)C(=O)N[C@@H](CCC(N)=O)C(=O)N[C@@H](CCC(N)=O)C(=O)N[C@@H](CCC(=O)O)C(=O)N[C@@H](Cc1ccccc1)C(=O)N[C@H](C(=O)N[C@@H](CC(N)=O)C(=O)N[C@@H](Cc1c[nH]c2ccccc12)C(=O)N[C@@H](CC(C)C)C(=O)N[C@@H](CC(C)C)C(=O)N[C@@H](C)C(=O)N[C@@H](CCC(N)=O)C(=O)N[C@@H](CCCCN)C(=O)NCC(=O)O)C(C)C)[C@@H](C)CC [Peptide 5, [Pla6, L14, R18, E21] hGIP(6–31)] (H-[PhLac]ISDYSIALDKIRQQEFVNWLLAQKG-OH) | 22.7 ± 7.9 | no significant agonism | – | no significant agonism | 2.98 ± 1.68
3 | CCCCCCCCCCCCCCCC(=O)N[C@@H](CCC(=O)NCCCC[C@H](NC(=O)[C@H](Cc1ccc(O)cc1)NC(=O)[C@H](CC(=O)O)NC(=O)[C@H](CO)NC(=O)[C@@H](NC(=O)[C@@H](O)Cc1ccccc1)[C@@H](C)CC)C(=O)N[C@H](C(=O)N[C@@H](C)C(=O)N[C@@H](CC(C)C)C(=O)N[C@@H](CC(=O)O)C(=O)N[C@@H](CCCCN)C(=O)N[C@H](C(=O)N[C@@H](CCCNC(=N)N)C(=O)N[C@@H](CCC(N)=O)C(=O)N[C@@H](CCC(N)=O)C(=O)N[C@@H](CCC(=O)O)C(=O)N[C@@H](Cc1ccccc1)C(=O)N[C@H](C(=O)N[C@@H](CC(N)=O)C(=O)N[C@@H](Cc1c[nH]c2ccccc12)C(=O)N[C@@H](CC(C)C)C(=O)N[C@@H](CC(C)C)C(=O)N[C@@H](C)C(=O)N[C@@H](CCC(N)=O)C(=O)N[C@@H](CCCCN)C(=O)NCC(=O)O)C(C)C)[C@@H](C)CC)[C@@H](C)CC)C(=O)O [Peptide 8, [Pla6, L14, R18, E21] hGIP(6–31)-K11 (γE-C16)] (H-[PhLac]ISDYK([γGlu-Palmitoyl])IALDKIRQQEFVNWLLAQKG-OH) | 1.55 ± 0.07 | negligible cAMP production as agonists | – | negligible cAMP production as agonists | 0.5 ± 0.08
